Test results reported in ChEMBL document CHEMBL5465560, “Selectivity Literature for EUbOPEN Chemogenomic Library” (2024).

Tests used:
[1] = test system: Phosphatidylinositol 4,5-bisphosphate 3-kinase catalytic subunit alpha isoform (Homo sapiens), P42336 [E545K]; details: at 10 µM
[2] = target: DNA (cytosine-5)-methyltransferase 3B (Homo sapiens) (UniProt Q9UBC3); experiment: Selectivity interaction (Methyltransferase screen (Scintillation proximity assays)) EUB0000255b DNMT3B
[3] = target: Serine/threonine-protein kinase MARK2 (Homo sapiens) (UniProt Q7KZI7); experiment: Selectivity interaction (KinomeScan (DiscoverX)) EUB0000695a MARK2; details: at 100 nM
[4] = target: T1, cGMP-dependent protein kinase 1 (Homo sapiens) (UniProt Q13976); experiment: Selectivity interaction (KinomeScan (DiscoverX)) EUB0001049a PRKG1; details: at 1 µM
T1 sequence (whole entry): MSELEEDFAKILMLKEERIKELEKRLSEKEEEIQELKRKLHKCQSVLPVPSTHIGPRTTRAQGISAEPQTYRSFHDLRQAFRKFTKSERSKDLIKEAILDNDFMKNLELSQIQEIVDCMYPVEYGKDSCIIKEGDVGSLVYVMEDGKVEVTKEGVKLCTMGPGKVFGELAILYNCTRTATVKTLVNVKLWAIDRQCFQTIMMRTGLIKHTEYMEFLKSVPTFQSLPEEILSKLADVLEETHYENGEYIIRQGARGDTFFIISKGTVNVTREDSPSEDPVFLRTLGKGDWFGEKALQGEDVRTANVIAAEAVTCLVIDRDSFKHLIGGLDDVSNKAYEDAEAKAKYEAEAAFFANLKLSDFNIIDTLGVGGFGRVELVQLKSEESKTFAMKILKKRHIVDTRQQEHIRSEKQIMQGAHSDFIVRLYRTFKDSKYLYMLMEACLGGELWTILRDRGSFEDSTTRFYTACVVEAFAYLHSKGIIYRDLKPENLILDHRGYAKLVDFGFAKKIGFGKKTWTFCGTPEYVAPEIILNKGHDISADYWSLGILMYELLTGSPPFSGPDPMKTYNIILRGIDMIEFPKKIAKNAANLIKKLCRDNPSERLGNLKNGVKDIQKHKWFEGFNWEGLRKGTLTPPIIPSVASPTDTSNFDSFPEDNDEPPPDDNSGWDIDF

[5] = target: Cyclin-dependent kinase 2 (Homo sapiens, UniProt P24941); experiment: Selectivity interaction (Ambit KINOMEscan and KiNATiv profiling in Jurkat cells) EUB0000090b CDK2; format: cell-based; details: at 1 µM
[6] = target: Ribosomal protein S6 kinase alpha-5 (Homo sapiens) (UniProt O75582); experiment: Selectivity interaction (Ambit KINOMEscan and KiNATiv profiling in Jurkat cells) EUB0000090b RPS6KA5; format: cell-based; details: at 1 µM
[7] = target: Death-associated protein kinase 2 (Homo sapiens) (UniProt Q9UIK4); experiment: Selectivity interaction (KinomeScan (DiscoverX)) EUB0000045b DAPK2
[8] = target: Ephrin type-A receptor 2 (Homo sapiens) (UniProt P29317); experiment: Selectivity interaction (KinomeScan (DiscoverX)) EUB0000045b EPHA2
[9] = target: Dual specificity mitogen-activated protein kinase kinase 2 (Homo sapiens) (UniProt P36507); experiment: Selectivity interaction (KinomeScan (DiscoverX)) EUB0000045b MAP2K2
[10] = target: Transient receptor potential cation channel subfamily M member 6 (Homo sapiens) (UniProt Q9BX84); experiment: Selectivity interaction (KinomeScan (DiscoverX)) EUB0000229b TRPM6; details: at 10 µM
[11] = target: T2, Rhodopsin kinase GRK1 (Homo sapiens) (UniProt Q15835); details: at 10 µM
T2 sequence (whole entry): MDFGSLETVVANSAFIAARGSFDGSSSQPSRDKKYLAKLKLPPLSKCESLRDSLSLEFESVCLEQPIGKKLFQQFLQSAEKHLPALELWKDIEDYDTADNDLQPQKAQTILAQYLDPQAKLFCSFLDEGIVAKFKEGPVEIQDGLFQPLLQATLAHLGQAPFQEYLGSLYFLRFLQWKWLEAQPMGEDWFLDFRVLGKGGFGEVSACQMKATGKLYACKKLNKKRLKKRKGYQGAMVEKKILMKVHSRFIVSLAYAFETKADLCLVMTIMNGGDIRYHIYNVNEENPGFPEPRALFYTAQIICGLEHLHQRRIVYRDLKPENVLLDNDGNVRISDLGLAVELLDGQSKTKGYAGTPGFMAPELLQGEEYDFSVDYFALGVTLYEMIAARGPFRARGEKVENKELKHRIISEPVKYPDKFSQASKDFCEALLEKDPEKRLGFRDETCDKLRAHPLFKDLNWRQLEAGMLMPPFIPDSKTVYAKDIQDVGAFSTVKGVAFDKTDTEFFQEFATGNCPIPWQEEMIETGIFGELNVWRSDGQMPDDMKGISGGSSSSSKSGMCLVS

[12] = target: T3, Kinase suppressor of Ras 2 (Homo sapiens) (UniProt Q6VAB6); experiment: Selectivity interaction (ActivX KiNativ screen (ex vivo kinase selectivity in human PBMCs)) EUB0001619a KSR2; format: cell-based; details: PBMC, at 1 µM
T3 sequence (whole entry): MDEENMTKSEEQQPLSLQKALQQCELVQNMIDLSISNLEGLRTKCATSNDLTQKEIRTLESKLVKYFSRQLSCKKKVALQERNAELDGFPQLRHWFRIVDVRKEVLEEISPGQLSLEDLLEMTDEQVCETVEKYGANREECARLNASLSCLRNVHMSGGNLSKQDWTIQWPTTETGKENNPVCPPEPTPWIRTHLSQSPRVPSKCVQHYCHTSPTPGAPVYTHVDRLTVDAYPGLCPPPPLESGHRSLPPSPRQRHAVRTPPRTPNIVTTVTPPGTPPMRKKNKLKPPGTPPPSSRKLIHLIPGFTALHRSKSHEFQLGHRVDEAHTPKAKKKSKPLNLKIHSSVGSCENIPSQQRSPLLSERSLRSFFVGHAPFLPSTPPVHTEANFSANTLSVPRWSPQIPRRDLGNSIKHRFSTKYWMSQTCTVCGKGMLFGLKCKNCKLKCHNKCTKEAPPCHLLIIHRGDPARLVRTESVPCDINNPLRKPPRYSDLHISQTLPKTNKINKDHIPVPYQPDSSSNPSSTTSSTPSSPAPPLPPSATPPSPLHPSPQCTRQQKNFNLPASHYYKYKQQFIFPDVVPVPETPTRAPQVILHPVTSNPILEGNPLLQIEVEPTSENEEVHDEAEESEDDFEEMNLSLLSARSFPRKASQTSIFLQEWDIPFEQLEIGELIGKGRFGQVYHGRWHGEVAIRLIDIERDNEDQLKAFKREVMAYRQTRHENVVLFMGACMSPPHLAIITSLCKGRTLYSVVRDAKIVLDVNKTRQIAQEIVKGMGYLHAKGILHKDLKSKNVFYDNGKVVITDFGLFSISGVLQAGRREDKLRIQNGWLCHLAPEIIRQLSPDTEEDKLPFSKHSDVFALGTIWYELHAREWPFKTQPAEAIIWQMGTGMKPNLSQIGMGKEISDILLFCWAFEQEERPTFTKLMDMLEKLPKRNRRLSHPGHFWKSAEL

Chain of Death-associated protein kinase 2 (Homo sapiens) (Q9UIK4 whole entry, looked up): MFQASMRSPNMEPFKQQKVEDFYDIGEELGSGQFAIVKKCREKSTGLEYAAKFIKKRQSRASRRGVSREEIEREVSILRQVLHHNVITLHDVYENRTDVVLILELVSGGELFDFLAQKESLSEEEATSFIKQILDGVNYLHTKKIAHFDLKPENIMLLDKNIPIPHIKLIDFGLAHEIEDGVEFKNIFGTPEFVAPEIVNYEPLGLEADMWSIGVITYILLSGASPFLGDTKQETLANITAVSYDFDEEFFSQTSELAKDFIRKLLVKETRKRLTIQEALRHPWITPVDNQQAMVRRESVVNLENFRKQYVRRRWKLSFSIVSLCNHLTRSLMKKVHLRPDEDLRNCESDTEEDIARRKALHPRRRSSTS
Chain of Dual specificity mitogen-activated protein kinase kinase 2 (Homo sapiens) (P36507 whole entry): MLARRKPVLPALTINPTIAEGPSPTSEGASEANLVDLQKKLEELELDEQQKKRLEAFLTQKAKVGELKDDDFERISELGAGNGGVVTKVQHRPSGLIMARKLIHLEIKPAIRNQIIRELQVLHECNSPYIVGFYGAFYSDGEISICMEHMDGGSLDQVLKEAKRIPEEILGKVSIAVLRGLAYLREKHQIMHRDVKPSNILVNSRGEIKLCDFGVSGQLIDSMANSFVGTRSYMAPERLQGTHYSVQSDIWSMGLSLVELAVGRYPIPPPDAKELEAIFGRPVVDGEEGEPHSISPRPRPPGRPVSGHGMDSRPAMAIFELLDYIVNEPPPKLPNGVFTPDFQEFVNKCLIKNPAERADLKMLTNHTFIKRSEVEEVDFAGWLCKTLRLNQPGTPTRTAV
Chain of Ephrin type-A receptor 2 (Homo sapiens) (P29317 whole entry): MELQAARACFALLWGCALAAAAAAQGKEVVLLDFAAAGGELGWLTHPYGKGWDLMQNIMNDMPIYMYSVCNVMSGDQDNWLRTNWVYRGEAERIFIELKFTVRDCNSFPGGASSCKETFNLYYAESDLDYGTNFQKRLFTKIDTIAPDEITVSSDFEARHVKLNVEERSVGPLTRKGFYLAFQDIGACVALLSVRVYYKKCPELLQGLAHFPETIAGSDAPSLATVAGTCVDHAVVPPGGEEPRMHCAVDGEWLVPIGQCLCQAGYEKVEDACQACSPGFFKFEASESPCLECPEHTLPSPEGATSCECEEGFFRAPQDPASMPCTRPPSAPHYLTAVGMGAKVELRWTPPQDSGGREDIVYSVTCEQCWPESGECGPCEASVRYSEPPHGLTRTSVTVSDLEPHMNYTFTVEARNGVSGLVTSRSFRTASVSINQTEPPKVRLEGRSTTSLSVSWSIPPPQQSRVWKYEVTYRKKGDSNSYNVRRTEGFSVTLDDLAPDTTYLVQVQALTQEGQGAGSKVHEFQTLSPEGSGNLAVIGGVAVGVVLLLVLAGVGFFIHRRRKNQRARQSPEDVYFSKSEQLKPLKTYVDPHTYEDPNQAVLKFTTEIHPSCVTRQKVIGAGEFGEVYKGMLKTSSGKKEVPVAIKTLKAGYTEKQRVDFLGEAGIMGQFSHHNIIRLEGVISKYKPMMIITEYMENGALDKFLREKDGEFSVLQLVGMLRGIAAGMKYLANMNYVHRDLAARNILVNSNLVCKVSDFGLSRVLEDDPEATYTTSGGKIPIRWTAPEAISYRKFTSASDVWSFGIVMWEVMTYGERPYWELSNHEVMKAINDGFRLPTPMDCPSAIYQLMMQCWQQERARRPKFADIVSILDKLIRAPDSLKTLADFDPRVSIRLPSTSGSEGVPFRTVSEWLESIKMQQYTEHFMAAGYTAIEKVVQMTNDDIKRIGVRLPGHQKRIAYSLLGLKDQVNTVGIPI
Chain of Transient receptor potential cation channel subfamily M member 6 (Homo sapiens) (Q9BX84 whole entry): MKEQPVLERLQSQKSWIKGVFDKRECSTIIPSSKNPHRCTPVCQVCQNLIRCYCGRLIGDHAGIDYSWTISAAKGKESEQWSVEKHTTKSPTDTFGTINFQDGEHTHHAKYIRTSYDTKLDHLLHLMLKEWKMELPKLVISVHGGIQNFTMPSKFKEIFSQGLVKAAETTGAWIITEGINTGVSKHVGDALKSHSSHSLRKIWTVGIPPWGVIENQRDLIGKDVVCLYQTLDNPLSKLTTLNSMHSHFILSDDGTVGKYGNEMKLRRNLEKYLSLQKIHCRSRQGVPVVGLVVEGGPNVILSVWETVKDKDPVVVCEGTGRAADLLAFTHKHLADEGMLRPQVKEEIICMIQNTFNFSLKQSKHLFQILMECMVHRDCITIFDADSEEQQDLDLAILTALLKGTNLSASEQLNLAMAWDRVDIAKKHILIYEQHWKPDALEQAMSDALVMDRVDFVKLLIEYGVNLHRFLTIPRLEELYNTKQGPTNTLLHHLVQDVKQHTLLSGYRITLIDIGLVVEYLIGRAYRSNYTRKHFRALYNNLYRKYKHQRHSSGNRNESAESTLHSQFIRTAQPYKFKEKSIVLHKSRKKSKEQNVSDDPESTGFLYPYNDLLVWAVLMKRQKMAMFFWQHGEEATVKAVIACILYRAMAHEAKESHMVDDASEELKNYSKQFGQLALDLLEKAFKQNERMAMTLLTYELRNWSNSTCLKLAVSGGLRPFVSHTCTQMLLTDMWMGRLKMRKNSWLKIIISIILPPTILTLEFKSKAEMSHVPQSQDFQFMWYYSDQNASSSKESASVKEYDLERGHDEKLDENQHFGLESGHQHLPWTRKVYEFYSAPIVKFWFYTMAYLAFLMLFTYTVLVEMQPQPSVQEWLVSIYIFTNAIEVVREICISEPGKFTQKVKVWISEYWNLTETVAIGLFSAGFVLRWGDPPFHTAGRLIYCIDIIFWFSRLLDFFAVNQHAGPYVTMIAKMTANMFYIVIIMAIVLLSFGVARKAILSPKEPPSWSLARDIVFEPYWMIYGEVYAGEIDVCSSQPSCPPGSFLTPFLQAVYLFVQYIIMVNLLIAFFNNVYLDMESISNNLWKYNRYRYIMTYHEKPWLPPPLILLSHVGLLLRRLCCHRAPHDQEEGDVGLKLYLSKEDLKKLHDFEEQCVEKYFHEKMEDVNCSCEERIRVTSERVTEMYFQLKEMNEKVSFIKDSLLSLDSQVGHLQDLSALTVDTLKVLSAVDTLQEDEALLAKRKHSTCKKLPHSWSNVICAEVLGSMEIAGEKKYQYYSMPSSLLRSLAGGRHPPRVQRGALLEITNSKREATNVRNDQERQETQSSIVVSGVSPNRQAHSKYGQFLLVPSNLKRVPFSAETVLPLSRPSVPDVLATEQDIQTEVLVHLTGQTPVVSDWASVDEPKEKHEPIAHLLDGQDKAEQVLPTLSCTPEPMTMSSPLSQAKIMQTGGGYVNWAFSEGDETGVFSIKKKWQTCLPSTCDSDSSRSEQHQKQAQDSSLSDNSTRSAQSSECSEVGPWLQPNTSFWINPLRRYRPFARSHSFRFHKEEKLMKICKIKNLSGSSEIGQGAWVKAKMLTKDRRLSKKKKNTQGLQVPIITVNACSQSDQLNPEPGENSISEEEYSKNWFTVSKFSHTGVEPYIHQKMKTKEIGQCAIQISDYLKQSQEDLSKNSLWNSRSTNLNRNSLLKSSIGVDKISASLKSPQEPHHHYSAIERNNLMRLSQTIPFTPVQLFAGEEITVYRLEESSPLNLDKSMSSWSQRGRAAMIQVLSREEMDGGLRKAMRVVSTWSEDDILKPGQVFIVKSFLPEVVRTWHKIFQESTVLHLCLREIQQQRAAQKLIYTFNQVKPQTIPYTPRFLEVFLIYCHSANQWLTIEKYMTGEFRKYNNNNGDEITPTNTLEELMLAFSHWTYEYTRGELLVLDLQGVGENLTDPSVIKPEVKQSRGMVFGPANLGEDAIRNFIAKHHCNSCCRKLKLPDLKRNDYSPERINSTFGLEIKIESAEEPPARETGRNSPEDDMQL
Chain of Ribosomal protein S6 kinase alpha-5 (Homo sapiens) (O75582 whole entry, looked up): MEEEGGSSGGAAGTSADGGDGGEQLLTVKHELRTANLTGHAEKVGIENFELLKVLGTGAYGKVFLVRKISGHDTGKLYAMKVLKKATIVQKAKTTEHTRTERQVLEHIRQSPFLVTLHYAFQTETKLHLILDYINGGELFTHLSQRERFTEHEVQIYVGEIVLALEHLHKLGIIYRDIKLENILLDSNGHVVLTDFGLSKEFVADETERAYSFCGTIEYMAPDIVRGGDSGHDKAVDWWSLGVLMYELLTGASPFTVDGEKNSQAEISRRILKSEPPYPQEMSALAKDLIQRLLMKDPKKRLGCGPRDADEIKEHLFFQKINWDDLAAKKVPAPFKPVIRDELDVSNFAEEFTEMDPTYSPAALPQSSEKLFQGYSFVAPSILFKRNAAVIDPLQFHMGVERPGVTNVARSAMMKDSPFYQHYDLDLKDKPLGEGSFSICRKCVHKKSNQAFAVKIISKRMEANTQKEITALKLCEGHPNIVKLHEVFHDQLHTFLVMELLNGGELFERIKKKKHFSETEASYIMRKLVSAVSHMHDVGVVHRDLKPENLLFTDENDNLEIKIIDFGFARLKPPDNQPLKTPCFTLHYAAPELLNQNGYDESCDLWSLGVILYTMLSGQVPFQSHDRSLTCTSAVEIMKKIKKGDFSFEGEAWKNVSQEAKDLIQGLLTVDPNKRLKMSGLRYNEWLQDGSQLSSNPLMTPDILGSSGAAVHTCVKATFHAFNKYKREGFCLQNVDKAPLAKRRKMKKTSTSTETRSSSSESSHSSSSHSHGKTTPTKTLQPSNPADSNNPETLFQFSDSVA

## CCN(CC)CCCCNc1ncc2cc(-c3cc(OC)cc(OC)c3)c(NC(=O)NC(C)(C)C)nc2n1
[1]
  % of control: 100%

## COCCN1CCC(c2cc(CN(C)C(=O)c3cccc(Oc4ccccc4)c3)ccn2)CC1
[2]; at 1 µM
  % activity: > 95%
[2]; at 10 µM
  % activity: > 85%

## Cc1cc(F)c(C(=O)Nc2cccc(-c3nncn3C(C)C)n2)cc1-n1cnc(C2CC2)c1
[3]
  % of control: 100%

## COc1cc(Nc2nc(C)cc(-c3cnn4nc(OC)ccc34)n2)cc(C(F)(F)F)c1
[4]
  % of control: 92%

## CN(C)C/C=C/C(=O)Nc1ccc(C(=O)N2CCCC(Nc3ncc(Cl)c(-c4c[nH]c5ccccc45)n3)C2)cc1 (stereo unspecified)
[5]
  % of control: 72%
[6]
  % of control: 86%

## C=CC(=O)Nc1cc(-n2c(=O)ccc3cnc4ccc(-c5ccc(NS(C)(=O)=O)cc5)cc4c32)ccc1C
[7]; at 1 µM
  % of control: 100%
[7]; at 10 µM
  % of control: 94%
[8]; at 1 µM
  % of control: 100%
[8]; at 10 µM
  % of control: 100%
[9]; at 1 µM
  % of control: 96%
[9]; at 10 µM
  % of control: 66%

## COc1cc(N(C)c2ccnc3ccc(C(F)(F)F)cc23)cc(OC)c1OC
[10]
  % binding: 100%

## Cc1cc([C@@H](C)Nc2ccccc2C(=O)O)c2nc(N3CCOCC3)cc(=O)n2c1 [AZD-6482]
[11]
  % of control: 100%

## N#Cc1cccc(-c2c[nH]c3ncnc(N4CCOCC4)c23)c1
[12]
  % of inhibition: 12%
